Laboratory results reported in US9738631B2, “Compositions and methods for the treatment of neurological disorders” (CELLIXBIO PRIVATE LIMITED, priority 2012, dated 2017).

Experiments:
[1] = Pharmacokinetic profiles over 24 hours in normal and diabetic rats (toxicokinetic study); assay type: in vivo, Sprague Dawely rats; conditions: for reduction of AUC0-24 by diabetes / reduction of AUC0-inf by diabetes / reduction of Cmax by diabetes: streptozotocin-diabetic rats
Description: Toxicokinetic Effects of Carbamazepine and Formula (1-2) in Diabetic Rats […] Animals were divided into […], normal and diabetic sets; each set was divided into control and three-treated groups where rats received orally carbamazepine and formula (1-2) in dose levels of 100 and 200 mg/kg once daily for 28 days. The pharmacokinetic profiles were carried out over a period of 24 hours. The liver functions were evaluated by the determination of albumin, ALT and AST plasma levels and kidney functions were determined by creatinine and urea. Histopathology of rat's livers and kidneys were also investigated. Carbamazepine plasma levels were determined by a validated HPLC method.

[2] = test system: adult male Sprague Dawely rats; test: Liver and kidney functions (albumin, ALT, AST, creatinine, urea) after 28 days oral dosing; assay type: in vivo
Description: Toxicokinetic Effects of Carbamazepine and Formula (1-2) in Diabetic Rats
Diabetes was induced in adult male Sprague Dawely rats by streptozotocin (60 mg/kg, ip). Animals were divided into […], normal and diabetic sets; each set was divided into control and three-treated groups where rats received orally carbamazepine and formula (1-2) in dose levels of 100 and 200 mg/kg once daily for 28 days. The pharmacokinetic profiles were carried out over a period of 24 hours. The liver functions were evaluated by the determination of albumin, ALT and AST plasma levels and kidney functions were determined by creatinine and urea. Histopathology of rat's livers and kidneys were also investigated. Carbamazepine plasma levels were determined by a validated HPLC method.

[3] = treated groups, 100 and 200 mg/kg orally once daily for 28 days, P<0.05

NC(=O)N1c2ccccc2C=Cc2ccccc21 [carbamazepine, Carbamazepine]
reduction of AUC0-24 by diabetes ([1]; carbamazepine 100 mg/kg orally): 13.6%
reduction of AUC0-inf by diabetes ([1]; carbamazepine 100 mg/kg orally): 22.8%
reduction of Cmax by diabetes ([1]; carbamazepine 100 mg/kg orally): 6.8%
reduction of AUC0-24 by diabetes ([1]; carbamazepine 200 mg/kg orally): 12.2%
reduction of AUC0-inf by diabetes ([1]; carbamazepine 200 mg/kg orally): 32.8%
reduction of Cmax by diabetes ([1]; carbamazepine 200 mg/kg orally): 20.3%
effect of diabetes on the rate and extent of absorption ([1]; diabetic rats, P<0.05): significantly altered
elevation of liver enzymes, urea and creatinine in diabetic rats compared with normal rats ([2]; diabetic rats): more pronounced in diabetic rats
Liver enzymes levels [2, 3]: significantly elevated
creatinine levels [2, 3]: significantly elevated
urea levels [2, 3]: significantly elevated
